Columns and labels:
TXA2 receptor = molecular target: T1, TXA2 receptor (Oryctolagus cuniculus, UniProt Q6WQI8); experiment: TXA2 Receptor Binding Test 1 ([3H]SQ29548, washed rabbit platelets); parameters: species or system New Zealand White rabbit; settings: [3H]SQ29548 3 nM, rabbit washed platelets 10 mg/ml, 25° C., 60 minutes
T1 sequence (Q6WQI8 1-233): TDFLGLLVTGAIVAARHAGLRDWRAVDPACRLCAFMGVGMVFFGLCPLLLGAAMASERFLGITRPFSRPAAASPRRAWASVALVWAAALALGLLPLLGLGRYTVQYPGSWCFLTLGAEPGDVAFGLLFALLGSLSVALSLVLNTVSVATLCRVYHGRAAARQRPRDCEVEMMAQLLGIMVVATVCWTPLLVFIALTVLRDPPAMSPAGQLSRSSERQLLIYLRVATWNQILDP
Experimental: TXA2 Receptor Binding Test 1
Blood from a New Zealand White rabbit is taken in a vessel containing ACD solution (prepared by dissolving 1.175 g of sodium citrate, 0.685 g of citric acid and 1 g of dextrose in 50 ml of distilled water) and centrifuged at 180×g for 10 minutes at room temperature to obtain platelet-rich plasma. The obtained platelet-rich plasma is centrifuged at […] at room temperature to precipitate platelets. The platelets are then suspended in 50 mM Tris-HCl buffer (pH 7.2, containing 0.154M of NaCl) and the suspension is centrifuged at 2800×g for 15 minutes at 4° C. These operations are repeated twice to prepare washed platelets and the concentration of the platelets are adjusted to a final concentration of 10 mg/ml (wet weight).
As the ligand of TXA2, tritium-labelled SQ29548 ([^3 H]SQ29548) is used. In the antagonism test, 20 μl of [^3 H]SQ29548 having a final concentration of 3 nM is added to 500 μl of a platelet suspension having a platelet concentration of 10 mg/ml and 2.6 μl of a solution of a test compound dissolved in an appropriate solvent is added thereto. After incubating the resulting mixture at 25° C. for 60 minutes, the mixture is filtered through a glass filter by the cell harvester method. After washing the filter with 50 mM Tris-HCl buffer (3×4 ml), the radioactivity of the filter is measured by a scintillation counter, thereby measuring the amount of the [^3 H]SQ29548 bound to platelets. In the saturation test, 20 μl of [^3 H]SQ29548 is added to a final concentration of 0.1-50 nM and 2.6 μl of BM13505 having a final concentration of 1 μM is added so as to check non-specific binding, followed by carrying out the binding test. The concentration of the test compound at which binding of [^3 H]SQ29548 is inhibited by 50% is determined as the IC50 value.
The results of the evaluation of the activities of the compounds of the present invention by this method are summarized d in Table 3.

[1] = system: platelet aggregation induced by TXA2 agonist U-46619; experiment: Platelet Aggregation-inhibition Action 1 (U-46619-induced, platelet-rich plasma); type: cell-based; settings: U-46619 1-4 μM final, PRP, compound added one minute before U-46619
Experimental: Platelet Aggregation-inhibition Action 1
(§1) Blood collected from medial cubital vein is centrifuged at 800 rmp for 10 minutes and the upper portion of the resultant is collected as platelet-rich plasma (PRP). The PRP is dividedly poured into small test tubes and a TXA2 agonist U-46619 is added thereto (final concentration: 1-4 μM) so as to induce platelet aggregation. The degree of platelet aggregation is measured in terms of change in turbidity by a platelet aggregation measuring apparatus (Hematoracer, NIKO BIOSCIENCE). The compound is added one minute before the addition of U-46619 and the concentration of the compound at which the aggregation is inhibited by 50% is calculated as IC50 value.

[2] = system: platelet aggregation induced by ADP; experiment: Platelet Aggregation-Inhibition Action 2 (ADP-induced, platelet-rich plasma); type: cell-based; settings: ADP 1-3 μM final, PRP, compound added one minute before ADP
Experimental: Platelet Aggregation-Inhibition Action 2
as §1, with “PRP).” for “(PRP).”, “ADP” for “a TXA2 agonist U-46619”, “1-3” for “1-4”, “Hematoracer,” for “(Hematoracer,”, “ADP” for “U-46619 and”

SMILES | IC50 (TXA2 receptor) [nM] | IC50 [1] [nM] | IC50 [2] [nM]
O=C(O)COc1cccc2c(COC(Cc3ccccc3)Cc3ccccc3)coc12 [Example 53, (3-((1-benzyl-2-phenylethoxy)methyl)benzofuran-7-yloxy)acetic acid] | 2020 | – | –
Cc1oc2c(OCC(=O)O)cccc2c1CCSC(c1ccccc1)c1ccccc1 [Example 81, (3-(2-(diphenylmethylthio)ethyl)-2-methylbenzofuran-7-yloxy)acetic acid] | – | 640 | 4500
O=C(O)COc1cccc2c1ccn2CCSC(c1ccccc1)c1ccccc1 [Example 112, (1-(2-(diphenylmethylthio)ethyl)indole-4-yloxy)acetate] | – | 840 | 4500
Cc1oc2c(OCC(=O)O)cccc2c1CC[S+]([O-])CCc1ccccc1 (stereo not drawn) [Example 32, (3-(2-(2-phenylethylsulfinyl)ethyl)-2-methylbenzofuran-7-yloxy)acetic acid] | 569 | 1600 | –
O=C(O)COc1cccc2c1CCN2CCOCC(c1ccccc1)c1ccccc1 [Example 122, (1-(2-(2,2-diphenylethoxy)ethyl)indoline-4-yloxy)acetic acid] | – | 1400 | 2700
O=C(O)COc1cccc2c(CCCSC(c3ccccc3)c3ccccc3)coc12 [Example 91, (3-(3,3-diphenylmethylthiopropyl)benzofuran-7-yloxy)acetic acid] | – | – | 1900
CC(C)c1oc2c(OCC(=O)O)cccc2c1CNS(=O)(=O)CCc1ccccc1 [Example 19, (3-(((2-phenylethyl)sulfonylamino)methyl)-2-isopropylbenzofuran-7-yloxy)acetic acid] | 788 | 1400 | –
Cc1oc2c(OCC(=O)O)cccc2c1CCNS(=O)(=O)Cc1ccccc1 [Example 24, (3-(2-(benzylsulfonylamino)ethyl)-2-methylbenzofuran-7-yloxy)acetic acid] | 18.6 | 88 | –
O=C(O)COc1cccc2c(CCOCC(=O)c3ccccc3)coc12 [Example 47, (3-(2-(2-oxo-2-phenylethoxy)ethyl)benzofuran-7-yloxy)acetic acid] | 3670 | – | –
O=C(O)COc1cccc2c1ccn2CCNS(=O)(=O)c1ccccc1 [Example 104, (1-(2-(phenylsulfonylamino)ethyl)indole-4-yloxy)acetic acid] | 26.7 | 5100 | –
O=C(O)COc1cccc2c1ccn2CCOCC(c1ccccc1)c1ccccc1 [Example 109, (1-(2-(2,2-diphenylethoxy)ethyl)indole-4-yloxy)acetic acid] | – | – | 27900
O=C(O)COc1cccc2c(CNS(=O)(=O)CCOc3ccccc3)coc12 [Example 4] | – | 1100 | –
O=C(O)COc1cccc2c(CCSCC(c3ccccc3)c3ccccc3)coc12 [Example 88, (3-(2-(2,2-diphenylethylthio)ethyl)benzofuran-7-yloxy)acetic acid] | – | 510 | 730
C[C@H](COC(c1ccccc1)c1ccccc1)OCc1coc2c(OCC(=O)O)cccc12 [Example 97, (R)-(3-((2-(diphenylmethoxy)-1-methylethoxy)methyl)benzofuran-7-yloxy)acetic acid] | – | 1600 | 3400
O=C(O)COc1cccc2c(CCSC(c3ccccc3)c3ccccc3)c(CO)oc12 [Example 83, (2-hydroxymethyl-3-(2-(diphenylmethylthio)ethyl)benzofuran-7-yloxy)acetic acid] | – | 460 | 3300
O=C(O)COc1cccc2c(CCSC(c3ccccc3)c3ccccc3)c(CCO)oc12 [Example 85] | – | 620 | 750
O=C(O)COc1cccc2c(COCC=C(c3ccccc3)c3ccccc3)coc12 [Example 94, (3-((3,3-diphenyl-2-propenyloxy)methyl)benzofuran-7-yloxy)acetic acid] | – | 710 | –
O=C(O)COc1cccc2cc(COCCOC(c3ccccc3)c3ccccc3)oc12 [Example 130, (2-(2-diphenylmethoxyethoxymethyl)benzofuran-7-yloxy)acetic acid] | – | 18000 | –
O=C(O)COc1cccc2c(COCC(c3ccccc3)c3ccccc3)coc12 [Example 49, (3-((2,2-diphenylethoxy)methyl)benzofuran-7-yloxy)acetic acid] | – | – | 8200
O=C(O)COc1cccc2c(CC(O)CCC(c3ccccc3)c3ccccc3)coc12 (stereo not drawn) [Example 101, (3-(2-hydroxy-5,5-diphenylpentyl)benzofuran-7-yloxy)acetic acid] | – | 1500 | 1800
O=C(O)COc1cccc2c1CCN2CCSC(c1ccccc1)c1ccccc1 [Example 125, (1-(2-(diphenylmethylthio)ethyl)indoline-4-yloxy)acetic acid] | – | 720 | 3100

Second part, the compound after the results:

IC50 (TXA2 receptor) [nM] | IC50 [1] [nM] | IC50 [2] [nM] | SMILES
69.6 | 4000 | – | O=C(O)COc1cccc2c(CCOC(c3ccccc3)c3ccccc3)coc12 [Example 43, (3-(2-(diphenylmethoxy)ethyl)benzofuran-7-yloxy)acetate]
4.79 | 140 | – | Cc1oc2c(OCC(=O)O)cccc2c1CCNS(=O)(=O)CCc1ccccc1 [Example 25, (3-(2-(2-phenylethylsulfonylamino)ethyl)-2-methylbenzofuran-7-yloxy)acetic acid]
– | 4500 | 7800 | Cc1oc2c(OCC(=O)O)cccc2c1CCON=C(c1ccccc1)c1ccccc1 [Example 35, (3-(2-(diphenylmethyleneaminoxy)ethyl)-2-methylbenzofuran-7-yloxy)acetic acid]
– | 1000 | 305000 | O=C(O)COc1cccc2c(CNS(=O)(=O)CCc3ccccc3)coc12 [Example 8, (3-(((2-phenylethyl)sulfonylamino)methyl)benzofuran-7-yloxy)acetic acid]
596 | – | – | O=C(O)COc1cccc2c(CCOCc3ccc(-c4ccccc4)cc3)coc12 [Example 46, (3-(2-(4-phenylbenzyloxy)ethyl)benzofuran-7-yloxy)acetic acid]
4.46 | 300 | – | O=C(O)COc1cccc2c(CNS(=O)(=O)CCCc3ccccc3)coc12 [Example 9, (3-((3-phenylpropylsulfonylamino)methyl)benzofuran-7-yloxy)acetic acid]
229 | – | – | C[C@@H](COCc1coc2c(OCC(=O)O)cccc12)c1ccccc1 [Example 51, (R)-(3-((2-phenylpropyloxy)methyl)benzofuran-7-yloxy)acetic acid]
1.92 | 140 | – | Cc1oc2c(OCC(=O)O)cccc2c1CNS(=O)(=O)CCCc1ccccc1 [Example 17, (3-(((3-phenylpropyl)sulfonylamino)methyl)-2-methylbenzofuran-7-yloxy)acetic acid]
29.2 | 7200 | – | O=C(O)COc1cccc2c(CNS(=O)(=O)c3ccc4ccccc4c3)coc12 [Example 13]
– | 330 | 600 | O=C(O)COc1cccc2c(COCCOC(c3ccccc3)c3ccccc3)coc12 [Example 59, (3-((2-(diphenylmethoxy)ethoxy)methyl)benzofuran-7-yloxy)acetic acid]
3.09 | 1300 | – | Cc1ccc(S(=O)(=O)NCCn2ccc3c(OCC(=O)O)cccc32)cc1 [Example 103]

— patent US6323235A, “Benzene-condensed heterocyclic derivatives and their uses” (priority 1995, dated 2001)
